In ChEMBL document CHEMBL5584236, “Development of novel bisphenol derivatives with a membrane-targeting mechanism as potent gram-positive antibacterial agents” (Eur J Med Chem, 2024):

How the values were obtained:
Escherichia coli [1] = assay: Antibacterial activity against Escherichia coli ATCC25922 assessed as reduction in microbial growth incubated for 22 to 24 hrs by CLSI based broth microdilution method; format: functional; conditions: time 22-24 hrs
[2] = Hemolytic activity against rabbit RBC incubated for 1 hr by multimode plate reader; format: toxicity, cell-based, Oryctolagus cuniculus, Erythrocyte; conditions: rabbit red blood cells (erythrocytes)
[3] = tested on: Staphylococcus epidermidis; assay: Antibacterial activity against Staphylococcus epidermidis CMCC26069 assessed as reduction in microbial growth incubated for 22 to 24 hrs by CLSI based broth microdilution method; format: functional; conditions: time 22-24 hrs
Acinetobacter baumannii [4] = assay: Antibacterial activity against Acinetobacter baumannii R28889 assessed as reduction in microbial growth incubated for 22 to 24 hrs by CLSI based broth microdilution method; format: functional; conditions: time 22-24 hrs
Staphylococcus aureus [5] = assay: Bactericidal activity against methicillin-resistant Staphylococcus aureus NCTC10442 assessed as cell killing at 4 times of MIC measured with in 2 hrs by time kill assay relative to control; format: functional
Staphylococcus aureus [6] = assay: Bactericidal activity against Staphylococcus aureus ATCC29213 assessed as log reduction in bacterial load at 8 times of MIC measured with in 0.5 hrs by time kill assay; format: functional
[7] = Cytotoxicity against HEK293 cells assessed reduction in cell viability incubated for 24 hrs by CCK-8 assay; format: toxicity, cell-based; conditions: human
[8] = Cytotoxicity against mouse NCTC clone 929 cells assessed as viable cells at 100 ug/ml incubated for 24 hrs by CCK-8 assay relative to control; format: toxicity, cell-based; conditions: NCTC clone 929 (L929) cells, at 100 µg/mL, read-out: Activity
[9] = Cytotoxicity against HEK293 cells assessed as viable cells at 100 ug/ml incubated for 24 hrs by CCK-8 assay relative to control; format: toxicity, cell-based; conditions: human, at 100 µg/mL, read-out: Activity
Escherichia coli [10] = assay: Induction of outer membrane permeabilization in Escherichia coli ATCC25922 assessed as increase in fluorescence intensity measured upto 1 hr by NPN uptake assay; format: functional, organism-based
Staphylococcus aureus [11] = assay: Drug resistance, ratio of MIC for Staphylococcus aureus ATCC29213 after 20 passages to MIC for Staphylococcus aureus ATCC29213 after initial exposure; format: functional
Staphylococcus aureus [12] = assay: Antibacterial activity against Staphylococcus aureus ATCC29213 assessed as reduction in bacterial growth incubated for 22 to 24 hrs in presence of MgCl2 by CLSI based broth microdilution method; format: functional; conditions: time 22-24 hrs
Staphylococcus aureus [13] = assay: Antibacterial activity against Staphylococcus aureus ATCC29213 assessed as reduction in bacterial growth incubated for 22 to 24 hrs in presence of CaCl2 by CLSI based broth microdilution method; format: functional; conditions: time 22-24 hrs
Staphylococcus aureus [14] = assay: Antibacterial activity against methicillin-resistant Staphylococcus aureus N315 assessed as reduction in bacterial growth incubated for 22 to 24 hrs in presence of CaCl2 by CLSI based broth microdilution method; format: functional; conditions: time 22-24 hrs
Staphylococcus aureus [15] = assay: Antibacterial activity against methicillin-resistant Staphylococcus aureus N315 assessed as reduction in bacterial growth incubated for 22 to 24 hrs in presence of FeCl2 by CLSI based broth microdilution method; format: functional; conditions: time 22-24 hrs
Staphylococcus aureus [16] = assay: Antibacterial activity against methicillin-resistant Staphylococcus aureus N315 assessed as reduction in bacterial growth incubated for 22 to 24 hrs in presence of FeCl3 by CLSI based broth microdilution method; format: functional; conditions: time 22-24 hrs
Staphylococcus aureus [17] = assay: Antibacterial activity against methicillin-resistant Staphylococcus aureus NCTC10442 assessed as reduction in bacterial growth incubated for 22 to 24 hrs in presence of MgCl2 by CLSI based broth microdilution method; format: functional; conditions: time 22-24 hrs
Staphylococcus aureus [18] = assay: Antibacterial activity against methicillin-resistant Staphylococcus aureus NCTC10442 assessed as reduction in bacterial growth incubated for 22 to 24 hrs in presence of ZnSO4.7H2O by CLSI based broth microdilution method; format: functional; conditions: time 22-24 hrs
Staphylococcus aureus [19] = assay: Synergistic […] activity against Staphylococcus aureus ATCC29213 assessed as fractional inhibitory concentration index incubated for 22 to 24 hrs in presence of fusidic acid by CLSI based broth microdilution method; format: functional; conditions: time 22-24 hrs
Staphylococcus aureus [20] = assay: Synergistic […] activity against Staphylococcus aureus ATCC29213 assessed as fractional inhibitory concentration index incubated for 22 to 24 hrs in presence of linezolid by CLSI based broth microdilution method; format: functional; conditions: time 22-24 hrs
Staphylococcus aureus [21] = assay: Synergistic […] activity against Staphylococcus aureus ATCC29213 assessed as fractional inhibitory concentration index incubated for 22 to 24 hrs in presence of mupirocin by CLSI based broth microdilution method; format: functional; conditions: time 22-24 hrs
Staphylococcus aureus [22] = assay: Synergistic […] activity against Staphylococcus aureus ATCC29213 assessed as fractional inhibitory concentration index incubated for 22 to 24 hrs in presence of vancomycin by CLSI based broth microdilution method; format: functional; conditions: time 22-24 hrs
Staphylococcus aureus [23] = assay: Synergistic […] activity against methicillin-resistant Staphylococcus aureus NCTC10442 assessed as fractional inhibitory concentration index incubated for 22 to 24 hrs in presence of fusidic acid by CLSI based broth microdilution method; format: functional; conditions: time 22-24 hrs
Klebsiella pneumoniae = assay: Synergistic […] activity against Klebsiella pneumoniae ATCC10031 assessed as fractional inhibitory concentration index incubated for 22 to 24 hrs in presence of meropenem by CLSI based broth microdilution method; format: functional; conditions: time 22-24 hrs
Acinetobacter baumannii [24] = assay: Synergistic […] activity against Acinetobacter baumannii ATCC17978 assessed as fractional inhibitory concentration index incubated for 22 to 24 hrs in presence of tobramycin by CLSI based broth microdilution method; format: functional; conditions: time 22-24 hrs
Acinetobacter baumannii [25] = assay: Synergistic […] activity against Acinetobacter baumannii ATCC17978 assessed as fractional inhibitory concentration index incubated for 22 to 24 hrs in presence of amikacin by CLSI based broth microdilution method; format: functional; conditions: time 22-24 hrs
Staphylococcus aureus [26] = assay: Antibacterial activity against Staphylococcus aureus ATCC29213 infected in C57BL6 mouse corneal infection model assessed as log reduction in CFU at 0.5 % administered topically on corneas for four times in 3 days by MHA plate counting method; format: functional; conditions: route top, time 3 day
[27] = Cytotoxicity against mouse NCTC clone 929 cells assessed as viable cells at 3.125 ug/ml incubated for 24 hrs by CCK-8 assay relative to control; format: toxicity, cell-based; conditions: NCTC clone 929 (L929) cells, at 3.125 µg/mL, read-out: Activity
[28] = Cytotoxicity against mouse NCTC clone 929 cells assessed as viable cells at 12.5 ug/ml incubated for 24 hrs by CCK-8 assay relative to control; format: toxicity, cell-based; conditions: NCTC clone 929 (L929) cells, at 12.5 µg/mL, read-out: Activity
[29] = Cytotoxicity against mouse NCTC clone 929 cells assessed as viable cells at 50 ug/ml incubated for 24 hrs by CCK-8 assay relative to control; format: toxicity, cell-based; conditions: NCTC clone 929 (L929) cells, at 50 µg/mL, read-out: Activity
[30] = Cytotoxicity against HEK293 cells assessed as viable cells at 12.5 ug/ml incubated for 24 hrs by CCK-8 assay relative to control; format: toxicity, cell-based; conditions: human, at 12.5 µg/mL, read-out: Activity
[31] = Cytotoxicity against HEK293 cells assessed as viable cells at 25 ug/ml incubated for 24 hrs by CCK-8 assay relative to control; format: toxicity, cell-based; conditions: human, at 25 µg/mL, read-out: Activity
[32] = Cytotoxicity against HEK293 cells assessed as viable cells at 50 ug/ml incubated for 24 hrs by CCK-8 assay relative to control; format: toxicity, cell-based; conditions: human, at 50 µg/mL, read-out: Activity

SMILES: COC(=O)[C@H](CCCNC(=N)N)NC(=O)[C@H](CCCNC(=N)N)NC(=O)COc1ccc(S(=O)(=O)c2ccc(OC/C=C(/C)CCC=C(C)C)cc2)cc1
- MIC (Escherichia coli [1]): 6.25 µg/mL
- HC50 at 1 h [2]: > 200 µg/mL
- MIC [3]: 1.56 µg/mL
- MIC (Acinetobacter baumannii [4]): 6.25 µg/mL
- Activity (Staphylococcus aureus [5]): 99.99%
- log(activity) (Staphylococcus aureus [6]): 3
- CC50 at 24 h [7]: > 100 µg/mL
- viability at 24 h, 100 ug/ml [8]: 74%
- viability at 24 h, 100 ug/ml [9]: 79.4%
- Activity (Escherichia coli [10]): Dose-Dependent Effect
- Ratio (Staphylococcus aureus [11]): 4
- MIC (Staphylococcus aureus [12]): 1.56 µg/mL
- MIC (Staphylococcus aureus [13]): 3.12 µg/mL
- MIC (Staphylococcus aureus [14]): 3.12 µg/mL
- MIC (Staphylococcus aureus [15]): 1.56 µg/mL
- MIC (Staphylococcus aureus [16]): 1.56 µg/mL
- MIC (Staphylococcus aureus [17]): 1.56 µg/mL
- MIC (Staphylococcus aureus [18]): 1.56 µg/mL
- fractional inhibitory concentration index (FICI) (Staphylococcus aureus [19]): 0.28
- fractional inhibitory concentration index (FICI) (Staphylococcus aureus [20]): 0.28
- fractional inhibitory concentration index (FICI) (Staphylococcus aureus [21]): 0.625
- fractional inhibitory concentration index (FICI) (Staphylococcus aureus [22]): 0.5
- fractional inhibitory concentration index (FICI) (Staphylococcus aureus [23]): 0.5
- fractional inhibitory concentration index (FICI) (Klebsiella pneumoniae): 0.56
- fractional inhibitory concentration index (FICI) (Acinetobacter baumannii [24]): 0.56
- fractional inhibitory concentration index (FICI) (Acinetobacter baumannii [25]): 0.28
- log(activity) (Staphylococcus aureus [26]): 6.9
- viability at 24 h, 3.125 ug/ml [27]: 92.6%
- viability at 24 h, 12.5 ug/ml [28]: 88.9%
- viability at 24 h, 50 ug/ml [29]: 84.7%
- viability at 24 h, 12.5 ug/ml [30]: 94.2%
- viability at 24 h, 25 ug/ml [31]: 93.8%
- viability at 24 h, 50 ug/ml [32]: 91.5%
